Results published in patent US5591741A, “Fungicidal spiroheterocyclic derivatives” (American Cyanamid Company, priority 1993, dated 1997).

How the values were obtained:
Plasmopara viticola = assay: Antisporulant activity against vine downy mildew (PVA); format: in vivo; conditions: vine leaves, antisporulant foliar spray, 600 ppm, 750 l/ha
Method in brief: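 Cabernet Sauvignon vines (~8 cm) inoculated on lower leaf surfaces with 5×10^4 zoosporangia/ml, held 24 h at 21° C high humidity then 24 h glasshouse. Infected leaves sprayed underside with 600 ppm compound in 1:1 water/acetone, 0.04% Tween 20, 750 l/ha; 96 h glasshouse, 24 h humidity. Sporulating leaf area rated versus control.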

Alternaria solani = assay: Activity against tomato early blight (AS); format: in vivo; conditions: Table VI; tomato seedlings, contact prophylactic foliar spray, 4 days
Method in brief: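 Foliar contact prophylactic spray on tomato seedlings (cv Outdoor Girl, second true leaf expanded) in acetone/water 50:50 with 0.04% Tween 20; 24 h at 20° C, 40% R.H., then inoculation with 10^4 spores/ml A. solani conidia. Kept moist at 21° C; lesion cover rated 4 days post-inoculation against untreated or diluent-sprayed controls.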

Botrytis cinerea = assay: Direct protectant activity against broad bean grey mould (BCB); format: in vivo; conditions: direct protectant foliar spray, 600 ppm, 4 days
Method in brief: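 Broad bean plants (cv The Sutton, two leaf pairs) sprayed on upper leaf surfaces at 600 ppm, then inoculated 24 h later with 10^6 conidia/ml. Kept 4 days at 22 °C, high humidity; disease control rated from % leaf area with lesions against untreated or diluent controls.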

Leptosphaeria nodorum = assay: Activity against wheat leafspot (LN); format: in vivo; conditions: direct therapeutic foliar spray, 600 ppm, 6-8 days
Method in brief: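 Wheat cv Norman at single-leaf stage spray-inoculated with 1.5×10^6 conidia/ml, held 24 h at high humidity, then sprayed therapeutically with test compound at 600 ppm. Kept 6-8 days at 22° C, 70% humidity; lesion density per leaf rated against untreated or diluent-sprayed controls.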

[1] = test system: Erysiphe graminis f.sp. hordei; assay: Activity against barley powdery mildew, direct therapeutic (EGT); format: in vivo; conditions: direct therapeutic foliar spray, 600 ppm, up to 7 days
Method in brief: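 Barley seedlings (cv. Golden Promise, single-leaf stage) were dusted with mildew conidia one day before a therapeutic foliar spray of 600 ppm compound. Plants were kept at 18 °C and 40% humidity for up to 7 days, and sporulating leaf area was rated against untreated or diluent-sprayed controls.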

[2] = test system: Erysiphe graminis f.sp. hordei; assay: Direct protectant activity against barley powdery mildew (EGP); format: in vivo; conditions: direct protectant foliar spray, 8 days
Method in brief: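 Barley seedlings (cv Golden Promise, single-leaf stage) were foliar-sprayed, held 24 h at 18 °C/40% RH, then dusted with mildew conidia. After 8 days at 18 °C/40% RH, sporulating leaf area was scored as a rating against untreated or diluent-sprayed controls.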

Phytophthora infestans = format: in vivo; conditions: tomato, direct protectant foliar spray
[3] = test system: Pseudocercosporella herpotrichoides; assay: Activity against wheat eyespot in-vitro (PHI); format: cell-based; conditions: 10 ppm, 10 days, 20° C., mycelial growth
Method in brief: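 P. herpotrichoides mycelial fragments (5×10^4/ml) grown in half-strength PDB with compound at 10 ppm final, added from acetone. Incubated 10 days at 20 °C; mycelial growth rated against untreated or diluent controls.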

Rhizoctonia solani = assay: Activity against Rhizoctonia in-vitro (RSI); format: cell-based; conditions: 10 ppm, 10 days, 20° C., mycelial growth
Method in brief: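 R. solani mycelial fragments (5×10^4/ml) in half-strength Potato Dextrose Broth with compound added from acetone to 10 ppm final. Mycelial growth assessed after 10 days at 20° C, rated against untreated or diluent control.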

Venturia inaequalis = assay: Activity against apple scab in-vitro (VII); format: cell-based; conditions: 10 ppm, 10 days, 20° C., mycelial growth
Method in brief: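 Compound in acetone was tested at 10 ppm final in half-strength Potato Dextrose Broth inoculated with V. inaequalis mycelial fragments and spores at 5×10^4 propagules/ml. After 10 days at 20° C, mycelial growth was rated against untreated or diluent controls.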

Pyricularia oryzae = format: in vivo; conditions: rice seedlings, direct therapeutic foliar spray, 600 ppm, 4-5 days

| Compound | disease control rating PVA (Plasmopara viticola) | disease control rating AS (Alternaria solani) | disease control rating BCB (Botrytis cinerea) | disease control rating LN (Leptosphaeria nodorum) | disease control rating EGT [1] | disease control rating EGP [2] | disease control rating PIP (Phytophthora infestans) | disease control rating PHI [3] | disease control rating RSI (Rhizoctonia solani) | disease control rating VII (Venturia inaequalis) | disease control rating PO (Pyricularia oryzae) |
| --- | --- | --- | --- | --- | --- | --- | --- | --- | --- | --- | --- |
| CN(C1COC2(CCC(C(C)(C)C)CC2)C1)C1CC2CCC1C2 (stereo not shown) [Compound 128] | 0 (less than 50% disease control) | 2 (greater than 80% disease control) | 0 (less than 50% disease control) | 0 (less than 50% disease control) | 2 (greater than 80% disease control) | 2 (greater than 80% disease control) | 0 (less than 50% disease control) | 0 (less than 50% disease control) | 0 (less than 50% disease control) | 1 (about 50-80% disease control) | 0 (less than 50% disease control) |
| CCN(C1COC2(CCC(C(C)(C)C)CC2)C1)C1CC2CCC1C2 (stereo not shown) [Compound 129] | 0 (less than 50% disease control) | 0 (less than 50% disease control) | 0 (less than 50% disease control) | 0 (less than 50% disease control) | 2 (greater than 80% disease control) | 2 (greater than 80% disease control) | 0 (less than 50% disease control) | 0 (less than 50% disease control) | 0 (less than 50% disease control) | 1 (about 50-80% disease control) | 0 (less than 50% disease control) |
| CCCN(C1COC2(CCC(C(C)(C)C)CC2)C1)C1CC2CCC1C2 (stereo not shown) [Compound 130] | 0 (less than 50% disease control) | 0 (less than 50% disease control) | 0 (less than 50% disease control) | 0 (less than 50% disease control) | 2 (greater than 80% disease control) | 2 (greater than 80% disease control) | 2 (greater than 80% disease control) | 0 (less than 50% disease control) | 0 (less than 50% disease control) | 1 (about 50-80% disease control) | 0 (less than 50% disease control) |
| CN(CC(C)(C)C)C1COC2(CCC(C(C)(C)C)CC2)C1 (stereo not shown) [Compound 131] | 0 (less than 50% disease control) | 0 (less than 50% disease control) | 0 (less than 50% disease control) | 0 (less than 50% disease control) | 2 (greater than 80% disease control) | 2 (greater than 80% disease control) | 0 (less than 50% disease control) | 0 (less than 50% disease control) | 0 (less than 50% disease control) | 1 (about 50-80% disease control) | 0 (less than 50% disease control) |
| CCN(CC(C)(C)C)C1COC2(CCC(C(C)(C)C)CC2)C1 (stereo not shown) [Compound 132] | 0 (less than 50% disease control) | 0 (less than 50% disease control) | 0 (less than 50% disease control) | 0 (less than 50% disease control) | 2 (greater than 80% disease control) | 2 (greater than 80% disease control) | 0 (less than 50% disease control) | 0 (less than 50% disease control) | 0 (less than 50% disease control) | 1 (about 50-80% disease control) | 0 (less than 50% disease control) |
| CCCN(CC(C)(C)C)C1COC2(CCC(C(C)(C)C)CC2)C1 (stereo not shown) [Compound 133] | 0 (less than 50% disease control) | 0 (less than 50% disease control) | 0 (less than 50% disease control) | 0 (less than 50% disease control) | 2 (greater than 80% disease control) | 2 (greater than 80% disease control) | 0 (less than 50% disease control) | 0 (less than 50% disease control) | 0 (less than 50% disease control) | 1 (about 50-80% disease control) | 0 (less than 50% disease control) |
| CC(C)(C)CNC1COC2(CCC(C(C)(C)C)CC2)C1 (stereo not shown) [Compound 134] | 0 (less than 50% disease control) | 0 (less than 50% disease control) | 0 (less than 50% disease control) | 0 (less than 50% disease control) | 2 (greater than 80% disease control) | 2 (greater than 80% disease control) | 0 (less than 50% disease control) | 0 (less than 50% disease control) | 0 (less than 50% disease control) | 0 (less than 50% disease control) | 0 (less than 50% disease control) |
| CC(C)CNC1COC2(CCC(C(C)(C)CC(C)(C)C)CC2)C1 (stereo not shown) [Compound 137] | 0 (less than 50% disease control) | 0 (less than 50% disease control) | 0 (less than 50% disease control) | 2 (greater than 80% disease control) | 2 (greater than 80% disease control) | 2 (greater than 80% disease control) | 0 (less than 50% disease control) | 2 (greater than 80% disease control) | 2 (greater than 80% disease control) | 1 (about 50-80% disease control) | 0 (less than 50% disease control) |
